In patent publication US5034311A, “Photographic elements containing release compounds I” (Eastman Kodak Company, priority 1990, dated 1991):

Assay: Rate of tetrazole inhibitor release from timing group compounds in micellar solution (HPLC of free inhibitor and residual timing group compound)
Format: physicochemical
Details: inhibitor release, pH 13.5, (+10%)
Procedure: Rates of tetrazole release were measured for several timing group compounds which are representative of fragments that are generated by reaction of a coupler of this invention with oxidized developer during photographic processing. These solution measurements are a useful indication of photographic performance. Lower values of inhibitor release half-lives in solution correlate with greater development inhibition effects in film.
For a given measurement, 12.5 μmol of the timing group compound was dissolved in 3.2 mL of reduced Triton X-100 surfactant plus one drop glacial acetic acid plus approximately 5 mL methylene chloride (to facilitate dissolution of the timing group compound in surfactant). After methylene chloride was evaporated under partial vacuum, water (approximately 15 mL) was added and the mixture was vigorously agitated with a vortex mixer to create micelles. This miscellar solution was then diluted to 25 mL with water and mixed again. Inhibitor release kinetics were initiated by mixing 2 mL of the above micellar solution with an equal volume of an aqueous potassium hydroxide solution (0.75 mol KOH/L), producing a reaction mixture with a pH of about 13.5. At intervals, portions of the reaction mixture were quenched by the addition of 1 mL 30% aqueous acetic acid. The quenched mixture was then analyzed by high performance liquid chromatography to determine the concentrations of free inhibitor and residual timing group compound. First-order reaction rate constants were calculated from these concentration versus time data, and the reaction half-life, t1/2, was calculated with the expression t1/2 =0.693/k, where k is the observed rate constant. […] In the following table -INH signifies the inhibitor of the structure

| Half-Life at pH 13.5 | Compound |
| --- | --- |
| 15 sec | CCCCCCCOc1ccc(-c2nnn(C3CCCc4cc(O)ccc43)n2)cc1 (stereo not drawn) |
| 100 sec | CCCCCCCOc1ccc(-c2nnn(C3c4ccc(O)cc4CCC3(C)C)n2)cc1 (stereo not drawn) |
| 250 sec | CCCCCCCOc1ccc(-c2nnn(C3CCCCc4cc(O)ccc43)n2)cc1 (stereo not drawn) |
| 9 sec | CCCCCCCOc1ccc(-c2nnn(C3CCOc4cc(O)ccc43)n2)cc1 (stereo not drawn) |
| 30 sec | CCCCCCCOc1ccc(-c2nnn(C3CCc4cc(O)ccc43)n2)cc1 (stereo not drawn) |
| 29,000 sec | CCCCCCCOc1ccc(-c2nnn(Cc3ccc(O)cc3)n2)cc1 [reference compound] |
